Twelve compounds from ChEMBL document CHEMBL1201862, “PubChem BioAssay data set” (2004) can be followed below.

Holding throughout (experiment): growth of human tumour cells (NCI), 48 h
Assay [1] deals with NCI-H226.
The test system of assay [2] is SF-295.
The test system of assay [3] is A549.
Assay [4] has as its system LOX IMVI.
Assay [5] deals with HCC 2998.
The subject of assay [6] is SR.
For assay [7], the system named is COLO 205.
Assay [8] has as its system OVCAR-3.
Assay [9] concerns 786-0.
The subject of assay [10] is NCI-H460.
Assay [11] relates to SW-620.
Assay [12] concerns NCI-H23.
In assay [13] the test system is HOP-92.
Assay [14] concerns HCT-15.
Assay [15] concerns SN12C.
The test system of assay [16] is HT-29.
Assay [17] relates to SK-OV-3.
Assay [18] relates to T47D.
The test system of assay [19] is NCI/ADR-RES.

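Exposure lasted 48 hours, with cells grown in 96-well plates and compounds tested at five concentrations. Abbreviation: GI50, concentration required for 50% inhibition of growth.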 Calls of active or inactive are those of the source. Cut-off read from the data, not from the text of the source: active = GI50 up to about 1.1 µM and inactive = higher.

Take `N=C(N)NCCCC(Nc1c2ccccc2nc2ccccc12)C(=O)O` (centres undefined): the GI50 in [1], in [2], in assay [3], in [4], in [5] and in assay [6] was > 100 µM (inactive) throughout. In addition, the GI50 in [7] is > 100 µM (inactive); in [8], 82.6 µM (inactive); in assay [9] it was > 100 µM (inactive); in [10] it was > 100 µM (inactive); in [11], > 100 µM (inactive); in assay [12] it was > 100 µM (inactive). Also, the GI50 in assay [13] is > 100 µM (inactive); in assay [14], more than 100 µM; in [15] it was > 100 µM (inactive); in assay [16] it was > 100 µM (inactive).

For the compound `CC(C)CC(=O)NS(=O)(=O)c1ccccc1`, the GI50 in assay [1], in [2], in assay [3], in assay [4], in [5] and in assay [6] was > 100 µM (inactive) throughout. Further, the GI50 in [7], in assay [8], in [9], in assay [10], in [11] and in assay [12] was > 100 µM (inactive) in each case. Also, the GI50 in assay [17] was > 100 µM (inactive); in assay [13], > 100 µM (inactive); in assay [14] it was more than 100 µM; in assay [15], > 100 µM (inactive); in assay [16], > 100 µM (inactive).

Consider `COc1ccc(CC(C)NCC(O)c2ccc(O)c(NC=O)c2)cc1` (centres undefined), for which the GI50 in [1] is > 100 µM (inactive); in assay [18] it was > 100 µM (inactive); in assay [2], 33.9 µM (inactive); in [3], > 100 µM (inactive); in [4] it was > 100 µM (inactive); in assay [6], > 100 µM (inactive). In addition, the GI50 in assay [7], in assay [8], in assay [9], in [10], in [11] and in assay [12] was > 100 µM (inactive) throughout. Also, the GI50 is > 100 µM (inactive) in assay [19]; > 100 µM (inactive) in assay [17]; more than 100 µM in assay [14]; 20.1 µM (inactive) in [15]; 86.7 µM (inactive) in [16].

`O=C(O)c1ccc(-c2nc3cc(Cl)ccc3[nH]2)cc1`: the GI50 in [1], in [18], in [2], in assay [3], in assay [5] and in assay [6] was > 100 µM (inactive) each time. Also, the GI50 in assay [7], in assay [8], in assay [9], in [11], in [19] and in [17] was > 100 µM (inactive) in each case. In addition, the GI50 in assay [13] was > 100 µM (inactive); in assay [14], more than 100 µM; in assay [15] it was > 100 µM (inactive); in assay [16] it was > 100 µM (inactive).

For `COc1ccc2c(c1OC)C1=C(C2=O)c2cc3c(cc2CCN1)OCO3`, the GI50 in [1] was 2.9 µM (inactive); in assay [2], 33.5 µM (inactive); in [3] it was 47.2 µM (inactive); in assay [4], 24.8 µM (inactive); in assay [5], 32.1 µM (inactive); in [6], 21 µM (inactive). Besides, the GI50 was 4.08 µM (inactive) in [7]; 31.6 µM (inactive) in assay [8]; 31.9 µM (inactive) in assay [9]; 32.4 µM (inactive) in [10]; 22.5 µM (inactive) in assay [11]; 46.5 µM (inactive) in [12]. For the same compound, the GI50 in assay [13] was 58.6 µM (inactive); in assay [14], 29.4 µM; in [15] it was 6.76 µM (inactive); in assay [16], 18.9 µM (inactive).

In the case of `Cc1ccc(S(=O)(=O)N/N=C(/CC(=O)c2c(C)[n+]([O-])c3ccccc3[n+]2[O-])C(=O)Nc2ccccc2C)cc1`, the GI50 is > 100 µM (inactive) in assay [1]; > 100 µM (inactive) in assay [2]; > 100 µM (inactive) in assay [3]; > 100 µM (inactive) in assay [5]; 35.5 µM (inactive) in assay [6]; > 100 µM (inactive) in [7]. Also, the GI50 in assay [8], in assay [9], in assay [10], in assay [11], in [12] and in assay [17] was > 100 µM (inactive) throughout. Also, the GI50 in assay [13] is 30.8 µM (inactive); in assay [14] it was more than 100 µM; in [15] it was > 100 µM (inactive); in assay [16], > 100 µM (inactive).

With `Cc1cccc2c1NC(c1c(C)[nH]c3ccccc13)C2` (centres undefined), the GI50 in assay [1] is 80.5 µM (inactive); in assay [2], 54.8 µM (inactive); in assay [3], > 100 µM (inactive); in assay [4], 80 µM (inactive); in [5], > 100 µM (inactive); in [6], > 100 µM (inactive). Also, the GI50 in assay [7] is 56 µM (inactive); in assay [8], 86.7 µM (inactive); in assay [9], > 100 µM (inactive); in assay [10] it was > 100 µM (inactive); in [11], 68.2 µM (inactive); in assay [12], > 100 µM (inactive). The GI50 in assay [17] was > 100 µM (inactive); in assay [13], 1.41 µM (inactive); in [14] it was more than 100 µM; in assay [15] it was > 100 µM (inactive); in [16], > 100 µM (inactive).

Turning to `COc1ccc(-c2cc(=O)c3c(OC)cccc3o2)c(OC)c1OC`, the GI50 in assay [1] is > 100 µM (inactive); in assay [2], > 100 µM (inactive); in [3], > 100 µM (inactive); in assay [4], > 100 µM (inactive); in assay [5], > 100 µM (inactive); in [6], 56.1 µM (inactive). Moreover, the GI50 in [7], in assay [8], in assay [9], in assay [10], in assay [11] and in assay [12] was > 100 µM (inactive) each time. For the same compound, the GI50 was > 100 µM (inactive) in assay [17]; 39.9 µM (inactive) in [13]; more than 100 µM in assay [14]; > 100 µM (inactive) in assay [15]; > 100 µM (inactive) in assay [16].

In the case of `CCOc1cc[n+]([C-](C#N)C#N)cc1`, the GI50 in [1], in assay [2], in assay [3], in assay [4], in assay [5] and in [6] was > 100 µM (inactive) in each case. The GI50 in assay [7], in assay [8], in assay [9], in [10], in assay [11] and in assay [12] was > 100 µM (inactive) throughout. For the same compound, the GI50 was > 100 µM (inactive) in assay [17]; > 100 µM (inactive) in assay [13]; more than 100 µM in assay [14]; > 100 µM (inactive) in assay [15]; > 100 µM (inactive) in assay [16].

Take `Cc1ccc(N(C(=O)CC(=O)N2N=C(c3ccccc3)C(/N=N/c3ccc([N+](=O)[O-])cc3)C2=O)C(=O)c2ccc(Cl)cc2)cc1` (centres undefined): the GI50 in [1] is 20.7 µM (inactive); in assay [2] it was 9.2 µM (inactive); in [3], 22.7 µM (inactive); in assay [4], 3.7 µM (inactive); in assay [5], 51.2 µM (inactive); in [6], 1.66 µM (inactive). Besides, the GI50 in assay [7] was 5.31 µM (inactive); in assay [8], 24 µM (inactive); in [9], 14.4 µM (inactive); in assay [10] it was 19 µM (inactive); in assay [11] it was 21.6 µM (inactive); in assay [12] it was 5.98 µM (inactive). The GI50 in [17] is 12.2 µM (inactive); in assay [13], 22.5 µM (inactive); in [14], 13.2 µM; in assay [15] it was 18.5 µM (inactive); in assay [16], 31 µM (inactive).

On to `O=C(NNc1ccccc1)/C(=C/c1ccc2c(c1)OCO2)NC(=O)c1ccccc1`, for which the GI50 in assay [1] was 96.2 µM (inactive); in assay [2], > 100 µM (inactive); in [3], > 100 µM (inactive); in assay [4] it was 41.6 µM (inactive); in [5], > 100 µM (inactive); in assay [6] it was 32.2 µM (inactive). For the same compound, the GI50 in assay [7] is 40.1 µM (inactive); in assay [8], 69 µM (inactive); in assay [9] it was > 100 µM (inactive); in assay [10], > 100 µM (inactive); in [12], > 100 µM (inactive); in assay [17] it was > 100 µM (inactive). Further, the GI50 in [13] is > 100 µM (inactive); in assay [14], more than 100 µM; in assay [15] it was > 100 µM (inactive); in [16], > 100 µM (inactive).

In the case of `O=C(Cc1ccccc1)NN1C(=O)C(Cl)C1c1cccc([N+](=O)[O-])c1` (centres undefined), the GI50 was > 42.9 µM (inactive) in assay [1]; > 100 µM (inactive) in assay [2]; > 100 µM (inactive) in assay [3]; 5.31 µM (inactive) in [4]; > 100 µM (inactive) in assay [5]; 3.06 µM (inactive) in assay [6]. The GI50 in assay [7] is > 100 µM (inactive); in assay [8], 43.4 µM (inactive); in assay [9], 12.3 µM (inactive); in assay [10], 35.2 µM (inactive); in assay [11], 27.6 µM (inactive); in [12], 26.4 µM (inactive). Further, the GI50 in assay [17] is 90.6 µM (inactive); in assay [13] it was 14 µM (inactive); in assay [14] it was 58.5 µM; in assay [15] it was 38.8 µM (inactive); in assay [16] it was 3.68 µM (inactive).
